Data: paper PMC9030697, “Engineering and Structural Insights of a Novel BBI-like Protease Inhibitor Livisin from the Frog Skin Secretion” (Toxins, 2022)
Converted amounts (≈) assume the structure as drawn. Like-named read-outs stand apart in the source and are kept apart here.

Experiments:
bovine trypsin = molecular target: T1, bovine trypsin (Bos taurus, UniProt P00760); assay: Kinetic assay for the inhibition constant (Ki), trypsin; assay type: biochemical
T1 construct: purchased Sigma-Aldrich
T1 sequence (P00760 24-246): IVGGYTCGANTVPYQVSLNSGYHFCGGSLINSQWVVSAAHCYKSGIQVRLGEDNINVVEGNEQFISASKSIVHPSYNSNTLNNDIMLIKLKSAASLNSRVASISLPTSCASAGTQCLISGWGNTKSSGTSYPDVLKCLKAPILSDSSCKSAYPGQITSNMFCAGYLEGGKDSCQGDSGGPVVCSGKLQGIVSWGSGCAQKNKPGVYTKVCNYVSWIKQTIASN
Experimental: (§1) The inhibitory activities against these proteases were tested at a peptide concentration ranging from 0.1 μM to 100 μM.
(§2) (a) Bovine trypsin; (b) matriptase; (c) chymotrypsin; (d) mesotrypsin; (e) human proteasome 20s. The activity of each protease was assayed in the presence of each peptide ranging from 0.1 μM to 100 μM in PBS (pH 7.4) and the corresponding substrate: Z-Gly-Gly-Arg-NHMec (trypsin); Suc-Ala-Ala-Pro-Phe-NHMec (chymotrypsin); Boc-Gln-Ala-Arg-AMC (matriptase); Mca-Arg-Pro-Val-Glu-Nval-Trp-Arg-Lys(Dnp)-NH2 (mesotrypsin); Suc-Leu-Leu-Val-Tyr-AMC (human proteasome 20s).
(§3) Kinetic assays for the inhibition constant (Ki). […] Inhibitory activities against the proteases of the peptides were tested using previously published papers and manufacturers’ instructions from 0.1 μM to 100 μM in PBS (pH 7.4). Wells of a black microtiter plate were loaded with designed different concentrations of peptide solution. […] For the human proteasome 20s, florescent was read after 15 min pre-incubation. The fluorescent products’ formation rate was measured continuously at 37 °C in the kinetic model using a multi-detection microplate reader (BMG Labtech, Ortenberg, Germany). […] Assays were repeated individually three times, and the Ki was calculated by non-linear regression (Morrison equation) using GraphPad Prism.

chymotrypsin = chymotrypsin (Bos taurus, UniProt P00766); assay: biochemical
Experimental: as §1, §2, §3

[1] = system: Staphylococcus aureus (NCTC 10788)
Experimental: (§4) The antimicrobial activities of the five peptides were assessed by determining their minimal inhibitory concentrations (MICs) against three standard microorganisms, the Gram-positive bacterium Staphylococcus aureus (NCTC 10788) and the Gram-negative bacterium Escherichia coli (NCTC 10418), and the opportunistic pathogen yeast Candida albicans (NCPF 1467).
(§5) Minimal inhibitory concentration assay. Antimicrobial activities of the peptides were monitored by determining their minimal inhibitory concentrations (MICs) using three standard microorganisms, which were Gram-positive bacterium Staphylococcus aureus (NCTC 10788), Gram-negative bacterium Escherichia coli (NCTC 10418), and opportunistic pathogen yeast Candida albicans (NCPF 1467). The peptides were dissolved in physiological PBS, two-fold diluted to obtain a series of concentrations, and added into wells of 96-well microtiter plates. The respective concentrations of peptides and controls were incubated with microorganism cultures (5 × 10^5 colony-forming units/mL) for 18 h at 37 °C in a humidified atmosphere. Then, the growth of microorganisms was detected by measuring optical density at λ = 550 nm using an absorbance reader (BioTek Instruments, Winooski, VT, USA). MIC was defined as the minimum concentration of peptide at which no growth was detectable.

[2] = system: Escherichia coli (NCTC 10418)
Experimental: as §4, §5

[3] = system: Candida albicans (NCPF 1467)
Experimental: as §4, §5

human matriptase-1 = molecular target: T2, human matriptase-1 (Homo sapiens, UniProt Q9Y5Y6); assay: Kinetic assay for the inhibition constant (Ki), matriptase; assay type: biochemical
T2 construct: purchased R&D systems
T2 sequence (Q9Y5Y6 1-855): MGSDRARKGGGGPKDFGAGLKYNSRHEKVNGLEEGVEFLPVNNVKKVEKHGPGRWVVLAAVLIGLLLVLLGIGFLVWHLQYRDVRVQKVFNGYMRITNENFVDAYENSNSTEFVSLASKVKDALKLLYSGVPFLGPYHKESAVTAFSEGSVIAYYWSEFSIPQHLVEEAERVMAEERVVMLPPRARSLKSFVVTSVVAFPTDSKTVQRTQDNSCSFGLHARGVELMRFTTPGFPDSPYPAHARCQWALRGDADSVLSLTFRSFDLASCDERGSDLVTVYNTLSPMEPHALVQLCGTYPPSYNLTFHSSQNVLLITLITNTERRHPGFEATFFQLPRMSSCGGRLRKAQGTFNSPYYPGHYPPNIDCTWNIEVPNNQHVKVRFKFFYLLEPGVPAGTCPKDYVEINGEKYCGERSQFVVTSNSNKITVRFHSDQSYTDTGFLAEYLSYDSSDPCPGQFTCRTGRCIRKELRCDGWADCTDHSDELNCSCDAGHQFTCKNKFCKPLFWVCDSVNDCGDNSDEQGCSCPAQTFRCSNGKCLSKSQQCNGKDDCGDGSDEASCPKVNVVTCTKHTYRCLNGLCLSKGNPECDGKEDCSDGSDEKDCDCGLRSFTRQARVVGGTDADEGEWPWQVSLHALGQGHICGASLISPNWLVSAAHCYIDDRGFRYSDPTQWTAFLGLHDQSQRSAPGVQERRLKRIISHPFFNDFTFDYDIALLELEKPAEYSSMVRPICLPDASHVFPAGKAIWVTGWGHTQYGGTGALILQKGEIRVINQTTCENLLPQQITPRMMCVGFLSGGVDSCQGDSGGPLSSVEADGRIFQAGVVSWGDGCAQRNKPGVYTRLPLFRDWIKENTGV
Experimental: as §1, §2, §3

mesotrypsin = molecular target: T3, mesotrypsin (Homo sapiens, UniProt P35030); assay: Kinetic assay for the inhibition constant (Ki), mesotrypsin; assay type: biochemical
T3 construct: purchased R&D systems
T3 sequence (P35030 1-304): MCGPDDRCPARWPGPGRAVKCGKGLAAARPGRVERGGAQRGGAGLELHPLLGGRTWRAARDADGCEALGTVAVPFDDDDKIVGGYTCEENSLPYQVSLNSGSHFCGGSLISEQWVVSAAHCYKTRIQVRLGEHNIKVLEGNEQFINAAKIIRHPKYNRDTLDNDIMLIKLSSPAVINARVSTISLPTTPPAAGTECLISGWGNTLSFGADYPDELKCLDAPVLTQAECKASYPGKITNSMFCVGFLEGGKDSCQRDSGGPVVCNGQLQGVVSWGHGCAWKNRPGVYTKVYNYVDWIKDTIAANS
Experimental: as §1, §2, §3

human proteasome 20s = molecular target: T4, human proteasome 20s (Homo sapiens, UniProt P28074); assay: Kinetic assay for the inhibition constant (Ki), 20s proteasome; assay type: biochemical
T4 construct: purchased Biochem, Boston, MA, USA
Experimental: as §1, §2, §3

[4] = two-fold dilutions in PBS, 5 × 10^5 CFU/mL, 18 h at 37 °C, OD 550 nm, highest concentration 512 μg/mL

SMILES | Ki (bovine trypsin) [µM] | Ki (chymotrypsin) [µM] | MIC S. aureus (NCTC 10788) ([1]; NCTC 10788, 18 h) [µg/mL] | MIC E. coli (NCTC 10418) ([2]; NCTC 10418, 18 h) [µg/mL] | MIC C. albicans (NCPF 1467) ([3]; NCPF 1467, 18 h) [µg/mL] | Ki (human matriptase-1; human matriptase, peptide 0.1-100 μM in PBS pH 7.4, substrate Boc-Gln-Ala-Arg-AMC 20 μM, 37 °C, continuous fluorescence, Morrison equation, three independent experiments, each in duplicate, NI = no inhibition, read-out: Ki Matriptase) [µM] | Ki (mesotrypsin; peptide 0.1-100 μM in PBS pH 7.4, substrate Mca-Arg-Pro-Val-Glu-Nval-Trp-Arg-Lys(Dnp)-NH2 20 μM, 37 °C, continuous fluorescence, Morrison equation, three independent experiments, each in duplicate, NI = no inhibition, read-out: Ki Mesotrypsin) [µM] | Ki (human proteasome 20s; peptide 0.1-100 μM in PBS pH 7.4, substrate Suc-Leu-Leu-Val-Tyr-AMC 20 μM, 15 min pre-incubation, 37 °C, fluorescence, Morrison equation, three independent experiments, each in duplicate, NI = no inhibition, read-out: Ki 20s Proteasome) [µM] | Ki (bovine trypsin; bovine trypsin, peptide 0.1-100 μM in PBS pH 7.4, substrate Z-Gly-Gly-Arg-NHMec 45 μM, 37 °C, continuous fluorescence, Morrison equation, three independent experiments, each in duplicate, NI = no inhibition, read-out: Ki Trypsin) [µM] | MIC S. aureus (NCTC 10788) [1, 4] [µg/mL] | MIC E. coli (NCTC 10418) [2, 4] [µg/mL] | MIC C. albicans, given in μM ([3]; same MIC as 256 μg/mL, printed in molar unit, 18 h at 37 °C, OD 550 nm) [µM] | MIC C. albicans (NCPF 1467) [3, 4] [µg/mL] | Ki (human matriptase-1) [µM] | Ki (mesotrypsin) [µM] | Ki (human proteasome 20s; read-out: Ki 20s Proteasome, peptide 0.1-100 μM in PBS pH 7.4, substrate Suc-Leu-Leu-Val-Tyr-AMC 20 μM, 15 min pre-incubation, 37 °C, fluorescence, Morrison equation, three independent experiments, each in duplicate, NI = no inhibition) [µM]
CC(C)C[C@H](NC(=O)[C@@H]1CSSC[C@H](NC(=O)CNC(=O)[C@H](CCCNC(=N)N)NC(=O)[C@H](CC(C)C)NC(=O)[C@H](Cc2ccccc2)NC(=O)CN)C(=O)N[C@@H](Cc2c[nH]c3ccccc23)C(=O)N[C@@H]([C@@H](C)O)C(=O)N[C@@H](CCCNC(=N)N)C(=O)N[C@@H](CO)C(=O)N[C@@H](Cc2ccccc2)C(=O)N2CCC[C@H]2C(=O)N2CCC[C@H]2C(=O)N[C@@H](CCCCN)C(=O)N2CCC[C@H]2C(=O)N1)C(=O)O [livisin-Arg] | 1.02 | 74.7 | >512 | >512 | >512 | 46.9 | 32.1 | > 100 | – | – | – | – | – | – | – | –
CC(C)C[C@H](NC(=O)[C@@H]1CSSC[C@H](NC(=O)CNC(=O)[C@H](CCCNC(=N)N)NC(=O)[C@H](CC(C)C)NC(=O)[C@H](Cc2ccccc2)NC(=O)CN)C(=O)N[C@@H](Cc2c[nH]c3ccccc23)C(=O)N[C@@H]([C@@H](C)O)C(=O)N[C@@H](CCCCN)C(=O)N[C@@H](CO)C(=O)N[C@@H](Cc2ccccc2)C(=O)N2CCC[C@H]2C(=O)N2CCC[C@H]2C(=O)N[C@@H](CCCCN)C(=O)N2CCC[C@H]2C(=O)N1)C(N)=O [livisin-NH2] | – | 144 | – | – | – | – | – | – | 0.424 | >512 | >512 | 132 (≈ 255 µg/mL) | 256 (≈ 132 µM) | 2.36 | 18.6 | > 100
